# Source: patent US5686486A, “4-hydroxy-benzopyran-2-ones and 4-hydroxy-cycloalkyl[b]pyran-2-ones useful to treat retroviral infections” (priority 1995, dated 1997)
# “And” between values parts separate entries of the source, which are not always exact repeats. Equal values may be shown once. Read-outs that look alike come from different tables or passages of the source.
# Tests used:
# HIV-1 protease [1] = target: T1, HIV-1 protease (Human immunodeficiency virus type 1 group M subtype B, UniProt P04585); experiment: biochemical; conditions: for inhibition at 0.123 µM: read-out: HIV-1 Protease % Inhib, dose 0.123 uM; for inhibition at 0.37 µM: read-out: HIV-1 Protease % Inhib, dose 0.370 uM; for inhibition at 1.1 µM: read-out: HIV-1 Protease % Inhib, dose 1.100 uM; for inhibition at 3.3 µM: read-out: HIV-1 Protease % Inhib, dose 3.300 uM; for inhibition at 10 µM: read-out: HIV-1 Protease % Inhib, dose 10.000 uM; for inhibition at 30 µM: read-out: HIV-1 Protease % Inhib, dose 30.000 uM; for inhibition at 1 µM: read-out: HIV-1 Protease % Inhib, dose 1.000 uM; for inhibition at 100 µM: read-out: HIV-1 Protease % Inhib, dose 100.000 uM
# Outline: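 Biotinylated, FITC-labeled peptide substrate (20 μl of 0.2 μM) incubated with HIV-1 protease (10 μl of 0.1 μM) and compound in 0.1 M sodium acetate pH 5.5, 1.0 M NaCl, 0.05% NP-40, 1 h, room temperature, dark. Streptavidin beads then capture uncleaved substrate; filtered labeled product read by fluorescence, giving percent inhibition.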
# HIV-1 protease [2] = target: T1, HIV-1 protease; experiment: biochemical
# Outline: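 Ki from two-fold serial inhibitor dilutions (24–48 concentrations) with 40 nM HIV-1 protease stock and 200 μM substrate stock, 90 min at room temperature; stopped with avidin beads. Reference inhibitor run in parallel; Ki by nonlinear least-squares fit.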
SMILES,inhibition at 0.123 µM (HIV-1 protease [1]) [%],inhibition at 0.37 µM (HIV-1 protease [1]) [%],inhibition at 1.1 µM (HIV-1 protease [1]) [%],inhibition at 3.3 µM (HIV-1 protease [1]) [%],inhibition at 10 µM (HIV-1 protease [1]) [%],inhibition at 30 µM (HIV-1 protease [1]) [%],Ki (HIV-1 protease [2]; read-out: HIV-1 FITC KI),inhibition at 1 µM (HIV-1 protease [1]) [%],inhibition at 100 µM (HIV-1 protease [1]) [%],Ki (HIV-1 protease [2]; HIV-1 FITC KI) [nM],HIV-1 Protease % Inhib (HIV-1 protease [1]; dose 0.123 uM) [%],HIV-1 Protease % Inhib (HIV-1 protease [1]; dose 0.370 uM) [%],HIV-1 Protease % Inhib (HIV-1 protease [1]; dose 1.100 uM) [%],HIV-1 Protease % Inhib (HIV-1 protease [1]; dose 3.300 uM) [%],HIV-1 Protease % Inhib (HIV-1 protease [1]; dose 10.000 uM) [%],HIV-1 Protease % Inhib (HIV-1 protease [1]; dose 30.000 uM) [%]
"O=c1oc2c(c(O)c1C(c1cccc(NS(=O)(=O)c3ccc(N=Nc4ccccc4)cc3)c1)C1CC1)CCCCCC2 (centres unmarked) [Example 308, N-[3-[Cyclopropyl(5,6,7,8,9,10-hexahydro-4-hydroxy-2-oxo-2H-cycloocta[b]pyran-3-yl)methyl]phenyl]4-(phenylazo)-benzenesulfonamide]",46.5,70.4,82.3,91.3,96.9,86.8,3.1 nM,–,–,–,–,–,–,–,–,–
"CCC(c1cccc(NS(=O)(=O)CCN2C(=O)c3ccccc3C2=O)c1)c1c(O)c2ccccc2oc1=O (centres unmarked) [Example 139, 2-(1,3-Dioxo-1,3-dihydro-isoindol-2-yl)-ethanesulfonic acid(3-(1-(4-hydroxy-2-oxo-2H-chromen-3-yl)-propyl)-phenyl)amide]",–,–,–,–,80.7,–,–,36.6,99.2,500,–,–,–,–,–,–
"O=c1oc2c(c(O)c1C(c1ccccc1)C1CC1)CCCCC2 (centres unmarked) [Example 112, 3-(Cyclopropylphenylmethyl)-6,7,8,9-tetrahydro-4-hydroxy-cyclohepta[b]pyran-2(5H)-one]",–,–,–,–,102,–,96 nM,70.1,105,–,–,–,–,–,–,–
"O=c1oc2c(c(O)c1C(c1cccc(NS(=O)(=O)c3ccccc3F)c1)C1CC1)CCCCCC2 (centres unmarked) [Example 281, N-[3-[Cyclopropyl(5,6,7,8,9,10-hexahydro-4-hydroxy-2-oxo-2H-cycloocta[b]pyran-3-yl)methyl]phenyl]-2-fluoro-benzenesulfonamide]",55.5,93.5,99.3,109,105,101,10.6 nM,–,–,–,–,–,–,–,–,–
O=c1oc2c(c(O)c1C(c1cccc(NS(=O)(=O)c3cc(Cl)cc(Cl)c3O)c1)C1CC1)CCCCCC2 (centres unmarked) [Example 284],37.5,77,99.8,107,107,104,12.2 nM,–,–,–,–,–,–,–,–,–
"O=c1oc2c(c(O)c1C(c1cccc(NS(=O)(=O)c3cccc(C(F)(F)F)c3)c1)C1CC1)CCCCCC2 (centres unmarked) [Example 280, N-[3-[Cyclopropyl(5,6,7,8,9,10-hexahydro-4-hydroxy-2-oxo-2H-cycloocta[b]pyran-3-yl)methyl]phenyl]-3-(trifluoromethyl)-benzenesulfonamide]",69.8,95.1,101,110,110,114,3 nM,–,–,–,–,–,–,–,–,–
"O=c1oc2c(c(O)c1C(c1ccccc1)C1CC1)CCCCCC2CC1CCCO1 (single isomer, unassigned) [Example 171, 3-(Cyclopropylphenylmethyl)-5,6,7,8,9,10-hexahydro-4-hydroxy-10-[(tetrahydro-2-furanyl)methyl]-2H-cycloocta[b]pyran-2-one]",–,–,–,–,–,–,23 nM,–,–,–,33.13,73.44,96.52,103.16,109.98,108.64
"Nc1cccc(C(c2c(O)c3c(oc2=O)CCCCCC3)C2CC2)c1 (centres unmarked) [Example 164, 3-[(3-Aminophenyl)cyclopropylmethyl]-5,6,7,8,9,10-hexahydro-4-hydroxy-2H-cycloocta[b]pyran-2-one]",–,14.6,46.2,87.3,99.7,102,78 nM,–,–,–,–,–,–,–,–,–
"O=c1oc2c(c(O)c1C(c1ccccc1)C1CC1)CCCCCC2CC1CCOC1 (centres unmarked) [Example 133, 3-(Cyclopropyl-phenyl-methyl)-4-hydroxy-10-(tetrahydro-furan-3-ylmethyl)-5,6,7,8,9,10-hexahydro-cycloocta[b]pyran-2-one]",19.1,71.2,97.9,101,101,99.5,12 nM,–,–,–,–,–,–,–,–,–
"O=c1oc2c(c(O)c1C(c1cccc(NS(=O)(=O)c3ccc(Cl)c(Cl)c3)c1)C1CC1)CCCCCC2 (centres unmarked) [Example 269, 3,4-Dichloro-N-[3-[cyclopropyl(5,6,7,8,9,10-hexahydro-4-hydroxy-2-oxo-2H-cycloocta[b]pyran-3-yl)methyl]phenyl]-benzenesulfonamide]",77.1,95.7,112,114,125,114,5.3 nM and 2.9 nM,–,–,–,–,–,–,–,–,–
"O=C1c2ccccc2C(=O)N1CCS(=O)(=O)Nc1cccc(C(c2c(O)c3c(oc2=O)CCCCCC3)C2CC2)c1 (centres unmarked) [Example 327, N-[3-[Cyclopropyl(5,6,7,8,9,10-hexahydro-4-hydroxy-2-oxo-2H-cycloocta[b]pyran-3-yl)methyl]phenyl]-1,3-dihydro-1,3-dioxo-2H-isoindole-2-ethanesulfonamide]",34.2,68.2,94.8,105,106,113,13.5 nM,–,–,–,–,–,–,–,–,–
"COc1cccc(Br)c1S(=O)(=O)Nc1cccc(C(c2c(O)c3c(oc2=O)CCCCCC3)C2CC2)c1 (centres unmarked) [Example 337, 2-Bromo-N-[3-[cyclopropyl(5,6,7,8,9,10-hexahydro-4-hydroxy-2-oxo-2H-cycloocta[b]pyran-3-yl)methyl]phenyl]-6-methoxy-benzenesulfonamide]",10.1,47.9,93.6,116,111,112,37.9 nM,–,–,–,–,–,–,–,–,–
"CCC(c1cccc(C(=O)NC(C(=O)NCc2ccccn2)C(C)CC)c1)c1c(O)c2ccccc2oc1=O (centres unmarked) [Example 149, 3-(1-(4-Hydroxy-2-oxo-2H-chromen-3-yl)-propyl)-N-(2-methyl-1-(pyridin-2-ylmethylcarbomoyl)-butyl)-benzamide]",–,–,–,–,99.2,–,–,28.8,97.3,405,–,–,–,–,–,–
"CC(C)CCC1CCCCCc2c1oc(=O)c(C(c1ccccc1)C1CC1)c2O (centres unmarked) [Example 132, 3-(Cyclopropyl-phenylmethyl)-4-hydroxy-10-(3-methyl-butyl)-5,6,7,8,9,10-hexahydro-cycloocta[b]pyran-2-one]",–,39.5,76.2,98.1,104,103,50 nM,–,–,–,–,–,–,–,–,–
"CCC(c1ccccc1)c1c(O)c2c(oc1=O)CCC2 (centres unmarked) [Example 111, 6,7-Dihydro-4-hydroxy-3-(1-phenylpropyl)-cyclopenta[b]pyran-2(5H)-one]",–,–,–,–,94.3,–,700 nM,36.5,101,–,–,–,–,–,–,–
"CCCC(c1cccc(N)c1)c1c(O)c2c(oc1=O)CCCCCC2 (centres unmarked) [Example 376, 3-[1-(3-Aminophenyl)butyl]-5,6,7,8,9,10-hexahydro4-hydroxy-2H-cycloocta[b]pyran-2-one]",10.6,33.7,75.3,96.5,102,103,195 nM,–,–,–,–,–,–,–,–,–
